From ChEMBL document CHEMBL3352524, “Identification of arylsulfonamides as ExoU inhibitors” (Bioorg Med Chem Lett, 2014)

Legend:
[1] = Cytotoxicity against HEK293T cells assessed as cell viability at 5 uM after 48 hrs; format: cell-based, HEK-293T; conditions: human, read-out: Activity
Pseudomonas aeruginosa = test: Inhibition of Pseudomonas aeruginosa ExoU expressed in Saccharomyces cerevisiae 14328 harboring pdr1/pdr3 genes assessed as cell death measured as yeast growth recovery at 5 uM after 48 hrs by copper-inducible promoter CUP1 assay; design: scale not given: the % may be the effect or the level left
[2] = Toxicity against Saccharomyces cerevisiae 14328 assessed as cell viability at 5 uM after 48 hrs; format: organism-based; conditions: Saccharomyces cerevisiae 14328 cells, read-out: Activity

| Structure (SMILES) | viability at 48 h, 5 µM [1] | Activity (Pseudomonas aeruginosa) | viability at 48 h, 5 µM [2] |
| --- | --- | --- | --- |
| O=S(=O)(Nc1cccc2ccccc12)c1ccc(C(F)(F)F)cc1 | > 90% | 45.4% | > 90% |
| O=S(=O)(Nc1ccc2c(c1)OCCO2)c1ccc(C(F)(F)F)cc1 | – | 27.6% | > 90% |
| Cc1cc(C)c(NS(=O)(=O)c2ccc3c(c2)OCCO3)c(C)c1 | – | 21% | 89.1% |
| Cc1cc(C)c(S(=O)(=O)Nc2ccc3c(c2)OCCO3)c(C)c1 | > 90% | 60.2% | > 90% |
| CCCCCc1ccc(S(=O)(=O)Nc2ccc3c(c2)OCCO3)cc1 | – | 9% | > 90% |
| CC(C)(C)c1ccc(S(=O)(=O)Nc2ccc3c(c2)OCCO3)cc1 | 87.7% | 52.2% | > 90% |
| Cc1cc(C)c(S(=O)(=O)NCCOc2ccccc2)c(C)c1 | – | 23.7% | > 90% |
| COc1ccc(NS(=O)(=O)c2c(C)cc(C)cc2C)cc1OC | – | 18.5% | > 90% |
| CCCc1ccc(OCCNS(=O)(=O)c2c(C)cc(C)cc2C)cc1 | 72.3% | 30.6% | 85.2% |
| NC(=O)c1cccc2c1-c1ccccc1C2 | > 90% | 84.7% | > 90% |
| O=S(=O)(Nc1ccc2c(c1)OCCO2)c1ccc2ccccc2c1 | 87.5% | 36.6% | > 90% |
